From article PMC3923901 (Journal of structural and functional genomics, 2013)

Assays:
[1] = molecular target: T1, SACOL2570 (putative galactoside O-acetyltransferase) (Staphylococcus aureus, UniProt Q5HCZ5); experiment: ITC, […] stoichiometry; assay type: binding
[2] = molecular target: T1, SACOL2570 (putative galactoside O-acetyltransferase); experiment: crystal structure; assay type: binding
crystal structure = molecular target: the molecule itself; experiment: crystal structure

## CC(=O)SCCNC(=O)CCNC(=O)[C@H](O)C(C)(C)COP(=O)(O)OP(=O)(O)OC[C@H]1O[C@@H](n2cnc3c(N)ncnc32)[C@H](O)[C@@H]1OP(=O)(O)O [AcCoA]
[1]
  Kd: 460 ± 35 µM

## CC(C)(COP(=O)(O)OP(=O)(O)OC[C@H]1O[C@@H](n2cnc3c(N)ncnc32)[C@H](O)[C@@H]1OP(=O)(O)O)[C@@H](O)C(=O)NCCC(=O)NCCS [CoA]
[2]
  Kd: 660 ± 13 µM

B1: putative galactoside O-acetyltransferase SACOL2570 from Staphylococcus aureus subsp. COL (enzyme)
chain: MTEKEKMLAEKWYDANFDQYLINERARAKDICFELNHTRPSATNKRKELIDQLFQTTTDNVSISIPFDTDYGWNVKLGKNVYVNTNCYFMDGGQITIGDNVFIGPNCGFYTATHPLNFHHRNEGFEKAGPIHIGSNTWFGGHVAVLPGVTIGEGSVIGAGSVVTKDIPPHSLAVGNPCKVVRKIDNDLPSETLNDETIK
modifications: selenomethionine (Se-Met-SACOL2570) in the protein of the apo crystals (PDB 3FTT) only
Crystal structure
  stoichiometry N: 3
